Measured values: PubChem BioAssay (NCI)
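1) Cells in 96-well plates. 2) Compound, 48 h, 5 concentrations. 3) Linear interpolation between surrounding doses. 4) Unreached endpoint = highest concentration. The concentration for 50% growth inhibition is given as GI50. TGI marks complete inhibition of growth.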

Legend:
Test in all cases: DTP human tumour cell line panel, 48 h
[1] = test system: UO-31 renal
[2] = test system: SF-539 CNS
[3] = test system: OVCAR-3 ovarian
[4] = test system: UACC-257 melanoma
[5] = test system: IGROV1 ovarian
[6] = test system: COLO 205 colon
[7] = test system: SK-OV-3 ovarian
[8] = test system: HCC-2998 colon
[9] = test system: EKVX NSCLC
[10] = test system: A549 NSCLC

Row | Structure (SMILES) | TGI [1] [µM] | TGI [2] [µM] | TGI [3] [µM] | TGI [4] [µM] | TGI [5] [µM] | TGI [6] [µM] | TGI [7] [µM] | TGI [8] [µM] | TGI [9] [µM] | TGI [10] [µM] | GI50 [1] [µM] | GI50 [2] [µM] | GI50 [3] [µM] | GI50 [4] [µM] | GI50 [5] [µM] | GI50 [6] [µM] | GI50 [7] [µM] | GI50 [8] [µM] | GI50 [9] [µM] | GI50 [10] [µM]
1 | CC1=C(O)C(=O)C=C2C1=CC=C1[C@@]2(C)CC[C@@]2(C)[C@@H]3C[C@](C)(C(=O)O)CC[C@]3(C)CC[C@]12C | 0.151 | 0.331 | 0.0941 | 0.1 | 0.0428 | 0.041 | 1 | 0.155 | 0.174 | 2.03 |  |  |  |  |  |  |  |  |  | 
2 | CCOC(=O)c1ccc(C)c(N=NN(C)C)c1 | > 100 | > 100 | > 100 | > 100 | > 100 | > 100 | > 100 | > 100 | > 100 | > 100 |  |  |  |  |  |  |  |  |  | 
3 | COc1cccc(C#Cc2ccccc2C#CCCCCO)c1 | 22.3 | 24.6 | 28.8 | 25.4 | 22.6 | 36.2 | 32.5 | 19.4 | 24.3 | 17.3 | 8.79 | 11.5 | 10.7 | 12.5 | 10.3 | 17.9 | 17.2 | 5.95 | 8.74 | 4.21
4 | C/C(N=NC(=S)N(C)C)=C1\C=CC=CN1O | > 97.4 | > 100 | > 100 | > 100 | > 100 | > 100 | > 100 | > 44.9 | > 100 | > 100 |  | < 0.1 |  |  |  |  |  |  |  | 
5 | O=C1CSC(/C(=N/Nc2ccccc2)c2nc3ccccc3[nH]2)=N1 | > 100 | 85.2 | 73.2 | > 100 | > 100 | > 100 | 73.5 | > 100 | > 100 | > 100 |  |  |  |  |  |  |  |  |  | 
6 | CN(C)C(=O)[C@H](O)[C@H](Cc1ccccc1)NC(=O)c1cc2cc(Cl)ccc2[nH]1 | 39.8 | 43.3 | 43.5 | 43.5 | 69.1 | 30.3 | 97.8 | 38.1 | > 100 | > 93.3 | 14.8 | 20.2 | 18.5 | 16.2 | 22.4 | 16.1 | 29.1 | 16.3 | 25.7 | 24
7 | O=C1[C@@H]2C(c3ccccc3F)=NO[C@@H]2C(=O)N1c1ccc(Cc2ccc(N3C(=O)[C@H]4C(c5ccccc5F)=NO[C@H]4C3=O)cc2)cc1 | > 100 | > 100 | > 100 | > 100 | > 100 | > 100 | > 100 | > 100 | > 100 | > 100 |  |  |  |  |  |  |  |  |  | 
8 | Nc1nc(F)nc2c1ncn2C1OC(CO)C(O)C1O (stereo unspecified) | > 100 | > 100 | > 100 | > 100 | > 100 | > 100 | > 100 | > 100 | > 100 | > 100 | 5.1 |  |  |  | 74.1 | 27.8 |  | 5.09 |  | 35.6
9 | O=c1c2cc(Br)cc(Br)c2nc(CCCl)n1CCO | > 100 | > 100 | > 100 | > 100 | > 100 | > 100 | > 100 | > 100 | > 100 | > 100 |  |  |  |  |  |  |  |  |  | 
